Where “and” joins values, the source holds several entries; their conditions need not be identical. Identical values can stand only once. Like-named read-outs stand apart in the source and are kept apart here.
How the values were obtained:
[1] = tested on: HER2; experiment: HER2 degradation in BT-474 cells (Example 3, Methods 1 and 2); type: cell-based, human
Method in brief: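 BT-474 cells treated 24 h at 37 °C with 10-point 3-fold compound dilutions; HER2 read by in-cell immunofluorescence after paraformaldehyde fixation, signal normalized to DRAQ5 nuclear stain, EC50 from curve fit. Degradation also checked by western blot of cytosolic lysates against tubulin.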

[2] = tested on: Human H3122 NSCLC cells; experiment: Cell viability assay (CellTiter-Glo) in H3122 cells (Example 4); type: cell-based; details: NCI-H3122
Method: Human H3122 NSCLC cells were obtained and grown in RPMI in the presence of fetal bovine serum (10%), 2 mM L-glutamine and antibiotics (100 IU/ml penicillin and 100 μg/ml streptomycin, Sigma Aldrich.) Cells were maintained at 37° C., 5% CO2 atmosphere.
Cell viability was measured using the CellTiter-Glo® assay (Promega). In brief, cells were plated in 96-well plates in triplicate at optimal seeding density (determined empirically) and incubated at 37° C., 5% CO2 atmosphere for 24 hr prior to the addition of drug or vehicle (0.3% DMSO) to the culture medium. At the end of the assay, CellTiter-Glo was added to the wells per manufacturer's recommendation, shaken for two minutes and incubated for 10 minutes at room temperature. Luminescence (0.1 sec) was measured with a Victor II microplate reader (Perkin Elmer) and the resulting data were used to calculate cell viability, normalized to vehicle control.
Cells as described above were treated with exemplary SDC-TRAPs and their viability determined as above as well. The following table illustrates the results.

[3] = tested on: H 3211 NSLC cells; experiment: IC50 of continuous and pulsed exposure (Examples 9 and 10); type: cell-based
[4] = Mouse plasma stability protocol, up to 1 h (Examples 16-18); details: for % Remaining (1 h): % Remaining of parent after 1 h incubation in mouse plasma at 37° C. (10 μM)
[5] = Artificial membrane permeability assay (PAMPA); details: same protocol, second table
[6] = tested on: HER2; experiment: HER2 degradation assay with BT-474 cell line (Example 12, FACS); type: cell-based, human
[7] = Stability in cell culture media (Example 18)
Method: 98 μL of DMEM+10% FBS, +1% P/S, +1.5 g/L sodium bicarbonate cell culture media was mixed with 2 μL of DMSO and aliquotted into 96-well plates at 250 μL per 0, 1, 2, and 18 hour time point.
3×50 μL media samples in 96 were held in 96-well plates at −80° C. until the last time point was extracted. 200 μL of methanol containing IS was added and mixed by vortex at 1500 rpm for 1.5 minutes at room temperature. The samples were centrifuged at 4400 rpm for 10 minutes at 8° C.

[8] = tested on: human urinary bladder cancer cell line RT-112; experiment: Cytotoxicity assay (CellTiter-Glo, 72 h), RT-112; type: cell-based; details: RT-112, 72 h, read-out: Cytotoxicity (IC50, nM) RT-112
Method: (§1) Cytotoxicity of SDC-TRAP molecules was determined in three cancer cell lines. […] 80 μL of CellTiter-Glo was added to each well, followed by room temperature incubation in the dark for 15 minutes. Cell was determined by luminescence. IC50 was calculated using XLfit™ software.

[9] = tested on: human breast cancer cell line BT-474; experiment: Cytotoxicity assay (CellTiter-Glo, 72 h), BT-474; type: cell-based; details: BT-474, 72 h, read-out: Cytotoxicity (IC50, nM) BT-474
Method: as §1

[10] = tested on: human urinary bladder cancer cell line SW780; experiment: Cytotoxicity assay (CellTiter-Glo, 72 h), SW780; type: cell-based; details: SW780, 72 h, read-out: Cytotoxicity (IC50, nM) SW-780
Method: as §1

[11] = in vivo; details: female, SCID, mouse
[12] = read-out: IC50, 1h-pulse/71h-compound free, 7.5 × 10^3 cells/well, two replicate columns
[13] = Tissue Distribution Data for SDC-TRAP-0171, Time (h) 0.083
[14] = Tissue Distribution Data for SDC-TRAP-0171, Time (h) 1
[15] = Tissue Distribution Data for SDC-TRAP-0171, Time (h) 6
[16] = Tissue Distribution Data for SDC-TRAP-0171, Time (h) 24
[17] = Tissue Distribution Data for SDC-TRAP-0171, Time (h) 48

CCc1c2c(nc3ccc(O)cc13)-c1cc3c(c(=O)n1C2)COC(=O)C3(CC)OC(=O)CCCNC(=O)c1cc2cc(-n3c(O)nnc3-c3cc(C(C)C)c(O)cc3O)ccc2n1C (centres unmarked) [SDC-TRAP-0024, 4,11-diethyl-9-hydroxy-3,14-dioxo-3,4,12,14-tetrahydro-1H-pyrano[3′,4′:6,7]indolizino[1,2-b]quinolin-4-yl 4-(5-(3-(2,4-dihydroxy-5-isopropylphenyl)-5-hydroxy-4H-1,2,4-triazol-4-yl)-1-methyl-1H-indole-2-carboxamido)butanoate]
IC50 [1]: > 5000 nM
IC50 [2]: 99 nM
IC50 [3, 12]: 697 nM and 2210 nM
IC50 ([3]; read-out: IC50, 72h-continuous, 7.5 × 10^3 cells/well, three replicate columns): < 12 nM and 118 nM and 104 nM

CCc1c2c(nc3ccc(OC(=O)N(C)CCOCCn4ccc5cc(-n6c(O)nnc6-c6cc(C(C)C)c(O)cc6O)ccc54)cc13)-c1cc3c(c(=O)n1C2)COC(=O)C3(O)CC (centres unmarked) [SDC-TRAP-0029, 4,11-diethyl-4-hydroxy-3,14-dioxo-3,4,12,14-tetrahydro-1H-pyrano[3′,4′:6,7]indolizino[1,2-b]quinolin-9-yl (2-(2-(5-(3-(2,4-dihydroxy-5-isopropylphenyl)-5-hydroxy-4H-1,2,4-triazol-4-yl)-1H-indol-1-yl)ethoxy)ethyl)(methyl)carbamate]
% Remaining (1 h) [4]: 47.0%
% Remaining (1 h, 37° C.) ([4]; mouse plasma, 1 h, 37° C.): 47%
Mouse (10 μM) % Remaining 1 h (37° C.)§ ([4]; mouse plasma, data from single parent peak): 44%
Mouse (10 μM) % Remaining 1 h (37° C.)* ([4]; mouse plasma, sum of both peaks): 47%
Mass Retention [5]: 84.0%
IC50 [1]: 1600 nM
IC50 [6]: 1370 nM
IC50 [2]: 125 nM
IC50 ([3]; 1 h, read-out: IC50, 1h-pulse/71h-compound free, 7.5 × 10^3 cells/well, two replicate columns): > 3000 nM
IC50 [3, 12]: > 3000 nM
Media (5 μM) % Remaining 19 h (37° C.) [7]: 29%
Media (5 μM) % Remaining 1 h (37° C.)§ ([7]; data from single parent peak): 43%
Media (5 μM) % Remaining 1 h (37° C.)* ([7]; sum of both peaks): 46%

CC(C)c1cc(-c2nnc(O)n2-c2ccc(CN3CCN(C(=O)Oc4ccc(COC(=O)Nc5cccc6c5CN(C5CCC(=O)NC5=O)C6=O)cc4)CC3)c(F)c2)c(O)cc1O (centres unmarked) [SDC-TRAP-0171, 4-((((2-(2,6-dioxopiperidin-3-yl)-1-oxoisoindolin-4-yl)carbamoyl)oxy)methyl)phenyl-4-(4-(3-(2,4-dihydroxy-5-isopropylphenyl)-5-hydroxy-4H-1,2,4-triazol-4-yl)-2-fluorobenzyl)piperazine-1-carboxylate]
IC50 [8]: 20 nM
% Remaining (1 h) [4]: 17.7%
Plasma Conc. [13]: 618 µM
Tumor Conc. [13]: 0.083 nmol/g of tissue
Tumor/Plasma Ratio [13]: 0.0164
Plasma Conc. [14]: 32.2 µM
Tumor Conc. [14]: 1 nmol/g of tissue
Tumor/Plasma Ratio [14]: 0.249
Plasma Conc. [15]: 1.21 µM
Tumor Conc. [15]: 6 nmol/g of tissue
Tumor/Plasma Ratio [15]: 3.10
Plasma Conc. [16]: 0.00162 µM
Tumor Conc. [16]: 24 nmol/g of tissue
Tumor/Plasma Ratio [16]: 407
Plasma Conc. [17]: BQL
Tumor Conc. [17]: 48 nmol/g of tissue
Tumor Conc. (Tissue Distribution Data for SDC-TRAP-0178, Time (h) 0.083): 16.4 nmol/g of tissue
Tumor Conc. (Tissue Distribution Data for SDC-TRAP-0178, Time (h) 1): 12.8 nmol/g of tissue
Tumor Conc. (Tissue Distribution Data for SDC-TRAP-0178, Time (h) 6): 7.17 nmol/g of tissue
Tumor Conc. (Tissue Distribution Data for SDC-TRAP-0178, Time (h) 24): 2.81 nmol/g of tissue
Tumor Conc. (Tissue Distribution Data for SDC-TRAP-0178, Time (h) 48): 1.01 nmol/g of tissue
IC50 [9]: 58 nM
IC50 [10]: 275 nM
IC50 [6]: 199 nM
Kp at 1 h [11]: 0.0589
Kp at 6 h [11]: 1.59
Kp at 24 h [11]: 100
Kp at […] [11]: 0.0179
concentration at 1 h [11]: 217 µM
concentration at 6 h [11]: 4.51 µM
concentration at 24 h [11]: 0.028 µM
concentration at 48 h [11]: 0.241 µM
concentration at […] [11]: 918 µM

Source: patent US10828315B2 (Madrigal Pharmaceuticals, Inc., priority 2013, dated 2020)
